Assay results as given in patent US6469051B2, “Diaminorhodamine derivative” (priority 1997, dated 2002).
One block for each molecule: values may come before it.

Key:
[1] = test system: Vascular smooth muscle cells derived from rat arota; assay: Imaging of nitric oxide produced by vascular smooth muscle cells; type: cell-based
Description: The normal lines represent fluorescence intensity of each cell and bold lines represent the averages thereof.
Vascular smooth muscle cells derived from rat arota were cultured in a glass bottom dish, and stimulated with LPS (12.5 μg/ml), […] (150 U/ml), IL-1β (25 U/ml) and TNF-α (30 ng/ml) to induce a nitric oxide synthase. The culture was continued for about 12 hours, and then the culture medium was changed to Krebs-Ringer-phosphate buffer (KRP) in which DAR-1EE was dissolved (Example 2, 10 μM) to allow uptake of […] by the cells. The cells were cultured at 37° C. for 1 hour, and washed, and the culture medium was changed to KRP in which L-Arg or L-NMMA was dissolved. Changes in intracellular fluorescence with time was observed under a fluorescence microscope (Ex. 530-560 nm, Em. 550-610 nm, magnification: ×20).

[2] = buffer, pH 7.4; cited from earlier work
[3] = Fluorescence maximum wavelengths; type: physicochemical
From the text: Maximum wavelengths: Ex. 565 nm-Em. 580 nm

[4] = Changes in sensitivity (absorbance, fluorescence intensity) at varying pHs; type: physicochemical; details: about 1 μM in 78 mM phosphate buffer, neutral to weakly acidic, approximately pH 4; Ex. 565 nm-Em. 580 nm
Description: DAR-1T was dissolved in purified water to prepare a solution of a concentration of 100 μM. The solution was added to phosphate buffer (78 mM) adjusted to each pH at a final concentration of about 1 μM, and absorbance and fluorescence intensity were measured. The measurement wavelengths of fluorescence were set to Ex. 565 nm-Em. 580 nm. In the figure, (a) represent the results of the absorptiometric measurement and (b) represents the results of fluorescence intensity measurement.

- cellular uptake and intracellular hydrolysis ([1]; 10 μM in KRP, 37° C., 1 hour): uptaken into the cells and hydrolyzed
Structure (SMILES): CCOC(=O)c1c(-c2c3ccc(=[N+](CC)CC)cc-3oc3cc(N(CC)CC)ccc23)ccc(N)c1N [DAR-1EE, [9-(3,4-diamino-2-ethoxycarbonylphenyl)-6-diethylamino-3H-xanthen-3-ylidene]diethyliminium]
- intracellular fluorescence intensity with time, nitric oxide producing cells ([1]; 10 μM DAR-1EE loaded 1 hour at 37° C., stimulated cells (LPS, INF, IL-1β, TNF-α), 1 mM L-Arg): Fluorescence intensity increased with time
- intracellular fluorescence intensity with time, cells producing no nitric oxide (non-stimulated) ([1]; 10 μM DAR-1EE loaded, non-stimulated cells, 1 mM L-Arg): substantially no change in fluorescence intensity
- intracellular fluorescence intensity with time, cells added with the NOS inhibitor ([1]; 10 μM DAR-1EE loaded, stimulated cells, 1 mM L-Arg+10 mM NMMA): substantially no change in fluorescence intensity

Structure (SMILES): CCNCCN(CC)N(O)N=O [NOC-12]
- half life [2]: 5.45 h

- Maximum wavelength Em. ([3]; emission): 580 nm
- Maximum wavelength Ex. ([3]; excitation): 565 nm
- fluorescence intensity as a function of pH [4]: no changes in fluorescence intensity
Structure (SMILES): CCN(CC)c1ccc2c(-c3ccc4nn[nH]c4c3C(=O)O)c3ccc(=[N+](CC)CC)cc-3oc2c1 [DAR-1T, [9-(7-carboxybenzotriazol-6-yl)-6-diethylamino-3H-xanthen-3-ylidene]diethyliminium]
